Experimental data from patent publication US20250154169A1, “COMPOUNDS AND METHODS FOR MODULATING SPLICING” (REMIX THERAPEUTICS INC., priority 2021, published 2025).

How the values were obtained:
[1] = system: MYB mRNA; assay: Splicing RT-qPCR assay, MYB canonical (CJ) and alternative (AJ) junction mRNA; type: cell-based, human; settings: Homo sapiens, 24 h, A673 or K562 cells, 24 hours compound treatment, RT-qPCR; for AC50: read-out: MYB AJ (AC50, increase in alternative junction mRNA); for IC50: read-out: MYB CJ (IC50, decrease in canonical junction mRNA)
In short: (§1)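 A673 or K562 cells were treated 24 h at 37 °C with an 11-point 3-fold compound dilution series (top 10 uM, DMSO ≤0.25%). Lysates went to one-step RT-qPCR measuring canonical (CJ) and alternative-exon (AJ) junction transcripts, normalized to GAPDH, GUSB or PPIA.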

[2] = system: HTT mRNA; assay: Splicing RT-qPCR assay, HTT canonical (CJ) and alternative (AJ) junction mRNA; type: cell-based, human; settings: Homo sapiens, A673 or K562 cells, 24 hours compound treatment; for IC50: 24 h, read-out: HTT CJ (IC50, decrease in canonical junction mRNA); for AC50: read-out: HTT AJ (AC50, increase in alternative junction mRNA)
In short: as §1

| Compound | AC50 [1] | IC50 [1] | IC50 [2] | AC50 [2] |
| --- | --- | --- | --- | --- |
| Cc1cn2cc(NC(=O)c3ccc(N4CC[C@@H](N5CCOCC5)C4)c4cn(C)nc34)cc(F)c2n1 [Compound 552, N-{8-fluoro-2-methylimidazo[1,2-a]pyridin-6-yl}-2-methyl-4-[(3R)-3-(morpholin-4-yl)pyrrolidin-1-yl]indazole-7-carboxamide] | 100 to 1000 nM | 100 to 1000 nM | 100 to 1000 nM | 100 to 1000 nM |
| C=CCN[C@@H]1CCN(c2ccc(C(=O)Nc3cc(F)c4nc(C)cn4c3)c3nn(C)cc23)C1 [Compound 554, N-{8-fluoro-2-methylimidazo[1,2-a]pyridin-6-yl}-2-methyl-4-[(3R)-3-(prop-2-en-1-ylamino)pyrrolidin-1-yl]indazole-7-carboxamide] | < 100 nM | 100 to 1000 nM | > 10000 nM | > 10000 nM |
| CCn1cc2c(N3CCC(NCC4(O)CC4)CC3)ccc(C(=O)Nc3cc(F)c4nc(C)cn4c3)c2n1 [Compound 576, 2-ethyl-N-{8-fluoro-2-methylimidazo[1,2-a]pyridin-6-yl}-4-(4-{[(1-hydroxycyclopropyl)methyl]amino}piperidin-1-yl) indazole-7-carboxamide] | 100 to 1000 nM | 100 to 1000 nM | 1000 to 10000 nM | > 10000 nM |
| CCn1cc2c(N3CCC(NCC(C)(C)O)CC3)ccc(C(=O)Nc3cc(F)c4nc(C)cn4c3)c2n1 [Compound 577, 2-ethyl-N-{8-fluoro-2-methylimidazo[1,2-a]pyridin-6-yl}-4-{4-[(2-hydroxy-2-methylpropyl)amino]piperidin-1-yl}indazole-7-carboxamide] | 100 to 1000 nM | 100 to 1000 nM | 100 to 1000 nM | 100 to 1000 nM |
| Cc1cn2cc(NC(=O)c3ccc(N4CC[C@@H](Nc5ccccc5)C4)c4cn(C)nc34)cc(F)c2n1 [Compound 579, N-{8-fluoro-2-methylimidazo[1,2-a]pyridin-6-yl}-2-methyl-4-[(3R)-3-(phenylamino)pyrrolidin-1-yl] indazole-7-carboxamide] | > 10000 nM | > 10000 nM | > 10000 nM | > 10000 nM |
| CCn1cc2c(N3CCC(NC4C5CNCC54)CC3)ccc(C(=O)Nc3cc(F)c4nc(C)cn4c3)c2n1 (centres unmarked) [Compound 580, 4-(4-{3-azabicyclo[3.1.0]hexan-6-ylamino}piperidin-1-yl)-2-ethyl-N-{8-fluoro-2-methylimidazo[1,2-a]pyridin-6-yl}indazole-7-carboxamide; bis(trifluoroacetic acid)] | 1000 to 10000 nM | 100 to 1000 nM | > 10000 nM | > 10000 nM |
| CCn1cc2c(N3CCC(NC4C5COCC54)CC3)ccc(C(=O)Nc3cc(F)c4nc(C)cn4c3)c2n1 (centres unmarked) [Compound 581, 2-ethyl-N-{8-fluoro-2-methylimidazo[1,2-a]pyridin-6-yl}-4-(4-{3-oxabicyclo[3.1.0]hexan-6-ylamino}piperidin-1-yl) indazole-7-carboxamide] | 100 to 1000 nM | 100 to 1000 nM | 1000 to 10000 nM | 1000 to 10000 nM |
| CCn1cc2c(N3CCNCC3)ccc(C(=O)Nc3cc(F)c4nc(CO)oc4c3)c2n1 [Compound 582, 2-ethyl-N-[4-fluoro-2-(hydroxymethyl)-1,3-benzoxazol-6-yl]-4-(piperazin-1-yl) indazole-7-carboxamide] | 100 to 1000 nM | 100 to 1000 nM | 100 to 1000 nM | 100 to 1000 nM |
| CCn1cc2c(N3C[C@@H](F)[C@H](NC)C3)ccc(C(=O)Nc3cc(F)c4nc(C)cn4c3)c2n1 [Compound 584, 2-ethyl-N-{8-fluoro-2-methylimidazo[1,2-a]pyridin-6-yl}-4-[(3R,4R)-3-fluoro-4-(methylamino)pyrrolidin-1-yl]indazole-7-carboxamide] | 100 to 1000 nM | 100 to 1000 nM | 1000 to 10000 nM | 1000 to 10000 nM |
| CCn1cc2c(N3C[C@H](F)[C@H](NC)C3)ccc(C(=O)Nc3cc(F)c4nc(C)cn4c3)c2n1 [Compound 585, cis-2-ethyl-N-(8-fluoro-2-methylimidazo[1,2-a]pyridin-6-yl)-4-((3S,4R)-3-fluoro-4-(methylamino)pyrrolidin-1-yl)-2H-indazole-7-carboxamide bis(2,2,2-trifluoroacetate)] | 100 to 1000 nM | 100 to 1000 nM | > 10000 nM | > 10000 nM |
| Cc1cn2cc(NC(=O)c3c(F)cc(N4CC[C@@H](NC5(C#N)CC5)C4)c4cn(C)nc34)cc(F)c2n1 [Compound 587, 4-[(3R)-3-[(1-cyanocyclopropyl)amino]pyrrolidin-1-yl]-6-fluoro-N-{8-fluoro-2-methylimidazo[1,2-a]pyridin-6-yl}-2-methylindazole-7-carboxamide] | 100 to 1000 nM | 100 to 1000 nM | 100 to 1000 nM | 100 to 1000 nM |
| Cc1cn2cc(NC(=O)c3ccc(N4CCN[C@@H](C(C)C)C4)c4cn(C)nc34)cc(F)c2n1 [Compound 589, N-{8-fluoro-2-methylimidazo[1,2-a]pyridin-6-yl}-4-[(3S)-3-isopropylpiperazin-1-yl]-2-methylindazole-7-carboxamide] | 1000 to 10000 nM | 100 to 1000 nM | > 10000 nM | > 10000 nM |
| CCn1cc2c(N3CCC(NC4(CO)CC4)CC3)ccc(C(=O)Nc3cc(F)c4nc(C)cn4c3)c2n1 [Compound 590] | 100 to 1000 nM | 100 to 1000 nM | 1000 to 10000 nM | 1000 to 10000 nM |
| CCn1cc2c(N3C[C@H](C)N[C@@H](C)C3)ccc(C(=O)Nc3cc(F)c4nc(C)cn4c3)c2n1 [Compound 592] | 100 to 1000 nM | 100 to 1000 nM | 1000 to 10000 nM | > 10000 nM |
| Cc1cn2cc(NC(=O)c3ccc(N4CC[C@@H](NCc5ncccn5)C4)c4cn(C)nc34)cc(F)c2n1 [Compound 594, N-{8-fluoro-2-methylimidazo[1,2-a]pyridin-6-yl}-2-methyl-4-[(3R)-3-[(pyrimidin-2-ylmethyl)amino]pyrrolidin-1-yl]indazole-7-carboxamide] | 1000 to 10000 nM | 100 to 1000 nM | > 10000 nM | > 10000 nM |
| Cc1cn2cc(NC(=O)c3ccc(N4CC[C@@H](NC5(C#N)CC5)C4)c4cn(C)nc34)cc(F)c2n1 [Compound 596, 4-[(3R)-3-[(1-cyanocyclopropyl)amino]pyrrolidin-1-yl]-N-{8-fluoro-2-methylimidazo[1,2-a]pyridin-6-yl}-2-methylindazole-7-carboxamide] | 1000 to 10000 nM | 1000 to 10000 nM | > 10000 nM | > 10000 nM |
| Cc1cn2cc(NC(=O)c3ccc(N4CC[C@@H](NC5(C)CC5)C4)c4cn(C)nc34)cc(F)c2n1 [Compound 598] | 100 to 1000 nM | < 100 nM | 1000 to 10000 nM | 1000 to 10000 nM |
| CCn1cc2c(N3C[C@@H](C)N[C@@H](C(C)C)C3)ccc(C(=O)Nc3cc(F)c4nc(C)cn4c3)c2n1 [Compound 600, 2-ethyl-N-{8-fluoro-2-methylimidazo[1,2-a]pyridin-6-yl}-4-[(3S,5R)-3-isopropyl-5-methylpiperazin-1-yl] indazole-7-carboxamide] | 1000 to 10000 nM | 1000 to 10000 nM | > 10000 nM | > 10000 nM |
| Cc1cn2cc(NC(=O)c3ccc(N4CC[C@@H](NC5CC(O)C5)C4)c4cn(C)nc34)cc(F)c2n1 (some centres unmarked) [Compound 602] | 100 to 1000 nM | < 100 nM | 1000 to 10000 nM | 1000 to 10000 nM |
| Cc1cn2cc(NC(=O)c3ccc(N4CC[C@H](NC5CC(O)C5)C4)c4cn(C)nc34)cc(F)c2n1 (some centres unmarked) [Compound 603] | > 10000 nM | 1000 to 10000 nM | > 10000 nM | > 10000 nM |
